Tested on: C. difficile spores
Experiment: Inhibition of germination of spores and/or inhibition of growth in Duncan and Foster growth medium
Assay type: cell-based, Clostridium difficile
Settings: Clostridioides difficile; 0.7 mM in growth medium; by 17 h; read-out: inhibition of spore germination

CC/C=C\C/C=C\C/C=C\CCCCCCCC(=O)O [linolenic acid]
inhibition at 700 µM: ~5%

— patent US20080254010A1, “Controlling Clostridium difficile-Associated Disease in the Gastrointestinal Tract” (priority 2007, published 2008)
